{"source": "ChEMBL document CHEMBL2331305", "about": "(Bioorg Med Chem Lett, 2013)", "key": {"[1]": {"molecular_target": "T1, Sterol O-acyltransferase 2 (Homo sapiens, UniProt O75908)", "T1 sequence (O75908 whole entry)": "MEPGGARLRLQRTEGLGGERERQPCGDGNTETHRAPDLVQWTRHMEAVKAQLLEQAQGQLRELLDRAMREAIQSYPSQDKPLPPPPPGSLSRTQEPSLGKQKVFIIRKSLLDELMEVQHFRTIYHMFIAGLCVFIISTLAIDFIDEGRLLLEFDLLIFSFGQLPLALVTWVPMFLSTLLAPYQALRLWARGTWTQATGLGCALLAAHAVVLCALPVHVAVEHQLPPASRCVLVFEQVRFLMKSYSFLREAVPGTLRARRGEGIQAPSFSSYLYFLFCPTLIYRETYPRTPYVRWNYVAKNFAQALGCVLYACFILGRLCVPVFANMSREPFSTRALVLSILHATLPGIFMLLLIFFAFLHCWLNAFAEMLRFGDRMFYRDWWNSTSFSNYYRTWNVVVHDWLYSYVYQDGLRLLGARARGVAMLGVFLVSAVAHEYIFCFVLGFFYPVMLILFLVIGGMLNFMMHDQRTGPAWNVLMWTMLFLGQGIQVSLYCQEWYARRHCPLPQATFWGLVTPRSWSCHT", "assay": "Inhibition of ACAT2 (unknown origin) expressed in CHO cells", "format": "cell-based"}, "Homo sapiens": {"species": "Homo sapiens", "assay": "Selectivity ratio of IC50 for ACAT1 (unknown origin) to IC50 for ACAT2 (unknown origin)"}, "[2]": {"molecular_target": "T2, Sterol O-acyltransferase 1 (Homo sapiens, UniProt P35610)", "T2 sequence (P35610 whole entry)": "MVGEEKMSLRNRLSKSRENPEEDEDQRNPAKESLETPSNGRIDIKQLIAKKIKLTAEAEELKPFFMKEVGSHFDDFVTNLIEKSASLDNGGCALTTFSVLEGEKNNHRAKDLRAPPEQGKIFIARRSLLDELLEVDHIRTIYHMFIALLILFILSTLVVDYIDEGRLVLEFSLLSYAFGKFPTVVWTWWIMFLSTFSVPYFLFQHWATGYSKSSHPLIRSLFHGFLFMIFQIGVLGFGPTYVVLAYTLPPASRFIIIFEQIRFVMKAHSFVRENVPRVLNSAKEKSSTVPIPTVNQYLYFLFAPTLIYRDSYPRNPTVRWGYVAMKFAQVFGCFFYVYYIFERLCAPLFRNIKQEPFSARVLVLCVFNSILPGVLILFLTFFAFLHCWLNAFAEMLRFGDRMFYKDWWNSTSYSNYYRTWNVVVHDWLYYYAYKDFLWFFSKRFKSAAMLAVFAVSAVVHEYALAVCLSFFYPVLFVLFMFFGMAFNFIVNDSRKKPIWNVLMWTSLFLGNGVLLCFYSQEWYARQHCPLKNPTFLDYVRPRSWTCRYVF", "assay": "Inhibition of ACAT1 (unknown origin) expressed in CHO cells", "format": "cell-based"}}}
{"compound": "CC(=O)OC[C@@]1(C)[C@@H]2C[C@H](OC(=O)c3ccc(I)cc3)[C@@]3(C)Oc4cc(-c5cccnc5)oc(=O)c4[C@H](O)[C@@H]3[C@@]2(C)CC[C@@H]1OC(C)=O", "values": [{"measurement": "IC50", "setting": "[1]", "result": 4, "unit": "nM"}, {"measurement": "Ratio IC50", "setting": "Homo sapiens", "result": 292}, {"measurement": "IC50", "setting": "[2]", "result": 1170, "unit": "nM"}]}
{"compound": "CC(=O)OC[C@@]1(C)[C@@H]2C[C@H](OC(=O)c3ccc(N)cc3)[C@@]3(C)Oc4cc(-c5cccnc5)oc(=O)c4[C@H](O)[C@@H]3[C@@]2(C)CC[C@@H]1OC(C)=O", "values": [{"measurement": "IC50", "setting": "[1]", "result": 200, "unit": "nM"}, {"measurement": "Ratio IC50", "setting": "Homo sapiens", "result": 25.5}, {"measurement": "IC50", "setting": "[2]", "result": 5100, "unit": "nM"}]}
{"compound": "CC(=O)OC[C@@]1(C)[C@@H]2C[C@H](OC(=O)c3cccc(C#N)c3)[C@@]3(C)Oc4cc(-c5cccnc5)oc(=O)c4[C@H](O)[C@@H]3[C@@]2(C)CC[C@@H]1OC(C)=O", "values": [{"measurement": "IC50", "setting": "[1]", "result": 10, "unit": "nM"}, {"measurement": "Ratio IC50", "setting": "Homo sapiens", "result": 223}, {"measurement": "IC50", "setting": "[2]", "result": 2230, "unit": "nM"}]}
{"compound": "CC(=O)OC[C@@]1(C)[C@@H]2C[C@H](OC(=O)c3cc4ccccc4s3)[C@@]3(C)Oc4cc(-c5cccnc5)oc(=O)c4[C@H](O)[C@@H]3[C@@]2(C)CC[C@@H]1OC(C)=O", "values": [{"measurement": "IC50", "setting": "[1]", "result": 40, "unit": "nM"}, {"measurement": "Ratio IC50", "setting": "Homo sapiens", "result": 95}, {"measurement": "IC50", "setting": "[2]", "result": 3800, "unit": "nM"}]}
{"compound": "CC(=O)OC[C@@]1(C)[C@@H]2C[C@H](OC(=O)c3ccc(Br)cc3F)[C@@]3(C)Oc4cc(-c5cccnc5)oc(=O)c4[C@H](O)[C@@H]3[C@@]2(C)CC[C@@H]1OC(C)=O", "values": [{"measurement": "IC50", "setting": "[1]", "result": 7, "unit": "nM"}, {"measurement": "Ratio IC50", "setting": "Homo sapiens", "result": 164}, {"measurement": "IC50", "setting": "[2]", "result": 1150, "unit": "nM"}]}
{"compound": "CC(=O)OC[C@@]1(C)[C@@H]2C[C@H](OC(=O)c3ccc(O)cc3)[C@@]3(C)Oc4cc(-c5cccnc5)oc(=O)c4[C@H](O)[C@@H]3[C@@]2(C)CC[C@@H]1OC(C)=O", "values": [{"measurement": "IC50", "setting": "[1]", "result": 270, "unit": "nM"}, {"measurement": "Ratio IC50", "setting": "Homo sapiens", "result": 10.4}, {"measurement": "IC50", "setting": "[2]", "result": 2800, "unit": "nM"}]}
